The results in this text go back to the METLIN SMRT retention time set (Domingo-Almenara et al. 2019).

This series can be described thus: gradient 5% acetonitrile 3 min, to 50% in 2 min, to 85% in 15 min, held 3 min, 100 µL/min. The settings on record: column: Zorbax Extend-C18 2.1 x 50 mm; eluents: water / acetonitrile, 0.1% formic acid. The gist of the method:
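Over 3 months, pure standards in mixtures of ~100 molecules were run by HPLC coupled to a quadrupole time-of-flight mass spectrometer in positive and negative ionization mode. The column was a Zorbax Extend-C18 (2.1 × 50 mm, 1.8 μm) at 100 μL/min, eluted with water and acetonitrile each holding 0.1% formic acid, with 40 μL dead and 900 μL dwell volumes. Retention time was determined from adduct peaks chosen by software and checked manually.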
`Cc1c(C(=O)O)nnn1-c1ccc2c(c1)OCCO2` registered an RP-LC retention time of 638 s. In the case of `CCOc1ccc(-n2ccn3c(CC(C)CC(=O)NCC(C)C)nnc3c2=O)cc1` (stereo not given) it was 683 s; in that of `Cc1ccc(-n2cc3c(N4CCCC(C(=O)NCc5ccc(N(C)C)cc5)C4)ncnc3n2)cc1` (stereo not given), 600 s. For the molecule `Cc1ccc2c(c1)N(Cc1ccccc1F)N=C(C(=O)N1CCCCC1)S2(=O)=O`, the RP-LC retention time amounted to 1000 s. As for `Cc1ccc(C)c(-c2cc3c4nn(CC(=O)NC(C)C)c(=O)n4ccn3n2)c1`, the RP-LC retention time was 856 s. In turn, `Cc1ccc(NC(=O)NC2CCN(c3ccc(F)c(C)c3)C2=O)c(C)c1` (stereo not given) had an RP-LC retention time of 874 s.

`CCCCC(=O)Nc1nc(-c2ccc3c(c2)NC(=O)C(C)O3)c(C)s1` (stereo not given) yielded an RP-LC retention time of 871 s. In the case of `Cc1cc2oc(C(=O)Nc3ccccc3[N+](=O)[O-])c(C)c2cc1C` it was 1090 s; in that of `Cc1ccc(-c2csc(NC(=O)CN3CCN(C(=O)C4CCCO4)CC3)n2)cc1` (stereo not given), 681 s; in that of `CCn1c(C)c(C(=O)CN(CC2CCCO2)C(=O)c2cccc(F)c2)c(C)c1C(=O)OC` (stereo not given), 896 s.

As to `COc1ccc(OC)c(CNC(=O)c2cnc(OC)nc2)c1`, the RP-LC retention time amounted to 700 s. For the molecule `COc1cc(NC(=O)Cn2c(=O)n(-c3ccc(C)cc3)c(=O)c3c2cc(C)n3C)cc(OC)c1`, the RP-LC retention time was 866 s. As for `CC(=O)NCc1ccc(-c2noc(/C=C/c3cccc(Cl)c3)n2)s1`, the RP-LC retention time was 903 s. Molecule `O=C(Nc1ccc(Br)cc1)N1CCCC1c1nc(-c2ccc(F)cc2F)no1` (stereo not given) displayed an RP-LC retention time of 1050 s. In the case of `Cc1cccc(CNc2nnc(-c3nnc(C)o3)c3ccccc23)c1` it was 831 s.

Molecule `COc1cc(Cl)c(NC(=O)C(=O)c2ccc[nH]2)c(OC)c1` displayed an RP-LC retention time of 969 s. In the case of `COc1ccc(C(=O)N2CCN(c3ccc(-c4nc(C)cs4)cn3)CC2)cc1F` it was 819 s. With `O=C(Nc1cccs1)N1CCC(c2ccccc2)C1` (stereo not given), the RP-LC retention time stood at 810 s.

Turning to `CCCS(=O)(=O)N1CCCCC1c1nc(-c2cccnc2)n[nH]1` (stereo not given), the RP-LC retention time was determined as 601 s. For the molecule `CC1=C(c2ccc(Cl)cc2)S(=O)(=O)N=C1N1CCC(C(=O)NCCN(C)C)CC1`, the RP-LC retention time is 642 s.

For `Cc1cncn(CC(=O)NC2CCCC2)c1=O`, the RP-LC retention time amounted to 576 s. Molecule `CCCCC(=O)N1CCN(C2CCN(CCOC)C2=O)CC1` (stereo not given) had an RP-LC retention time of 535 s. With `COc1ccc(C)cc1NS(=O)(=O)c1cc(-c2c(C)noc2NC(C)=O)ccc1C`, the RP-LC retention time turned out to be 804 s. For `CN(CC1CCOCC1)S(=O)(=O)Cc1cccc(Cl)c1` the value was 835 s; for `Cc1nc(N2CCN(c3ccccn3)CC2)c2c(C)c(C(=O)Nc3cccc(Cl)c3C)sc2n1`, 752 s. Regarding `COc1ccccc1-c1nc2nccc(-c3ccc(Br)s3)n2n1`, the RP-LC retention time is 1020 s. In the case of `Cc1cc(OCC(=O)NCc2ccco2)nc(N2CCCCCC2)n1` it was 572 s; in that of `Cc1cc(C)c(CNC(=O)C2CC(=O)N(c3cccc(NC(=O)C4CCC4)c3)C2)c(C)c1` (stereo not given), 892 s. For `CC(C)n1cnc2cc(CNC(=O)c3ccnn3C)ccc21` the value was 582 s; for `Cc1nnc(-c2cccc(Cl)c2)nc1NC(C)C`, 717 s. In the case of `CCCN(C)S(=O)(=O)c1cc(-c2nc(C)cs2)n(CC(=O)N2CCCCC2)c1` it was 967 s. As to `COc1ccc(CN2C[C@@H]3C(=O)N(C)C(=O)[C@@H]3C2)c(OC)c1`, the RP-LC retention time was determined as 587 s.

In turn, `CCOC(=O)CSc1nc2c(sc3ccccc32)c(=O)n1Cc1ccco1` registered an RP-LC retention time of 1040 s. For `CCS(=O)(=O)N1CCc2ccc(NC(=O)COc3ccc(Cl)cc3Cl)cc2C1`, the RP-LC retention time was determined as 964 s. Regarding `COc1cc2nc(C(=O)N3CCCCC3)cc(Nc3cc(C)cc(C)c3)c2cc1OC`, the RP-LC retention time came out at 760 s.

For `COc1cccc(Cn2c(C(=O)N3CCC(C(=O)NC4CCCCCC4)CC3)cc3ccsc32)c1`, the RP-LC retention time turned out to be 1070 s. In the case of `CCOC(=O)CNC(=O)N1CCCC1c1ccc(C)cc1` (stereo not given) it was 801 s. Molecule `Cc1nnc2cc(N3CCN(Cc4csc5c4CCCC5)CC3)cnn12` came in with an RP-LC retention time of 589 s.

With `O=C(Nc1cccnc1)C1CCCN(S(=O)(=O)c2c[nH]c(C(=O)N3CCCC3)c2)C1` (stereo not given), the RP-LC retention time is 594 s. In turn, `CNC(=O)C1CN(C(=O)Nc2ccccc2C(F)(F)F)CC12CCCC2` (stereo not given) registered an RP-LC retention time of 734 s. Consider `Cc1ccc2c(Nc3cccc(C(C)C)c3)c(C(=O)N3CCC(C)CC3)cnc2n1`, for which the RP-LC retention time worked out at 737 s. For `O=C1CN(C(=O)COc2cccc3ccccc23)c2ccccc2N1` the value was 861 s; for `Cc1cc(=O)c(OCc2ccccc2F)cn1CC(=O)NCc1ccccc1Cl`, 632 s; for `O=C1Nc2ccccc2SC1C(=O)N1CCC(C(=O)N2CCN(c3ccccn3)CC2)CC1` (stereo not given), 596 s.

With `Cc1oc(-c2[nH]ncc2C(=O)N2CCCC2)cc1S(=O)(=O)NCc1ccco1`, the RP-LC retention time was 651 s. `COc1ccc(S(=O)(=O)Cc2nc(-c3ccccc3C)no2)cc1OC` gave an RP-LC retention time of 882 s.

`O=C(Cc1csc2nc(-c3ccccc3)cn12)N1CCN(c2ccccc2F)CC1` registered an RP-LC retention time of 869 s. For `CCc1ccc(NC(=O)Cn2c(C)nc3onc(C)c3c2=O)cc1` the value was 845 s; for `COc1ccc(Cl)cc1NC(=O)N1CCCC(c2nnc(-c3ccccc3F)s2)C1` (stereo not given), 1040 s; for `CC(C)S(=O)(=O)N1CCOc2ccc(NC(=O)C3CC3)cc2C1`, 757 s. In the case of `COc1ccc(CCC(=O)N2CCC(n3nnc4cc(F)ccc4c3=O)CC2)cc1` it was 784 s; in that of `COc1cccc(-c2nc3sc(C(N)=O)c(C)n3c2NC(C)(C)C)c1`, 743 s; in that of `Cc1cc(C)cc(Oc2nccn3c(=O)n(CC(=O)NC4CCCCC4)nc23)c1`, 905 s. For `O=c1c2cc(-c3ccc4c(c3)OCO4)nn2ccn1Cc1ccccc1F` the value was 985 s. `Cc1cc(-c2ccc(C)c(S(=O)(=O)N3CCN(c4ccccn4)CC3)c2)on1` returned an RP-LC retention time of 719 s. In the case of `Cc1ccc(-c2nnc(-c3nc(N4CCCCCC4)c4ccccc4n3)o2)cc1` it was 750 s; in that of `O=C(Cn1cccc1-c1nc(-c2ccc3c(c2)OCO3)no1)Nc1ccc2c(c1)OCCO2`, 963 s; in that of `CCCOc1ccc(-c2nnc3sc(-c4ccncc4)nn23)cc1`, 642 s. For `Cc1cccc(CCNC(=O)C2CCCN(c3ncnc4c3nc3n4CCCCC3)C2)c1` (stereo not given) the value was 819 s.

In turn, `CCNC(=O)N1CCCC1c1nc(-c2ccccc2OC)no1` (stereo not given) showed an RP-LC retention time of 698 s.
